≈ marks a conversion by molar mass, not a printed value. Non-standard residues stand in square brackets, D forms with d. Residues, ends and D or L forms follow the SMILES beside them. Orn = NCCC[C@H](N)C(=O)O
Columns and labels:
Assay type in all cases: functional
Bacillus subtilis [1] = experiment: Inhibitory activity was determined against bacillus subtilis (ATCC 82)
[2] = Tested for minimum concentration for hemolysis of fresh human erythrocytes
Bacillus subtilis [3] = experiment: Ratio of minimum hemolysis concentration to that of minimum inhibitory concentration

| SMILES | MIC (Bacillus subtilis [1]) | MHC [2] | Ratio (Bacillus subtilis [3]) |
| --- | --- | --- | --- |
| CC(C)C[C@@H]1NC(=O)[C@H](CCCN)NC(=O)[C@H](C(C)C)NC(=O)[C@H](Cc2ccc(O)cc2)NC(=O)[C@H](CCC(N)=O)NC(=O)[C@H](CC(N)=O)NC(=O)[C@@H](Cc2ccccc2)NC(=O)[C@H](Cc2ccccc2)NC(=O)[C@@H]2CCCN2C(=O)[C@@H](Cc2ccccc2)NC1=O [TYROCIDINE A] (cyclo(F[dF]NQYV[Orn]L[dF]P)) | 8.3 µg/mL (≈ 6.53 µM) | 8.2 µg/mL | 1 |
| CC(C)C[C@@H]1NC(=O)[C@H](CCCN)NC(=O)[C@H](C(C)C)NC(=O)[C@H](Cc2ccc(O)cc2)NC(=O)[C@H](CC(N)=O)NC(=O)[C@H](CC(N)=O)NC(=O)[C@@H](Cc2ccccc2)NC(=O)[C@H](Cc2ccccc2)NC(=O)[C@@H]2CCCN2C(=O)[C@@H](Cc2ccccc2)NC1=O | 0.4 µg/mL (≈ 0.318 µM) | 20 µg/mL | 50 |
| CC(C)C[C@@H]1NC(=O)[C@H](CCCN)NC(=O)[C@H](C(C)C)NC(=O)[C@H](Cc2ccc(O)cc2)NC(=O)[C@H](CC(=O)O)NC(=O)[C@H](CC(N)=O)NC(=O)[C@@H](Cc2ccccc2)NC(=O)[C@H](Cc2ccccc2)NC(=O)[C@@H]2CCCN2C(=O)[C@@H](Cc2ccccc2)NC1=O | 5.3 µg/mL (≈ 4.21 µM) | 32 µg/mL | 6 |
| CC(C)C[C@@H]1NC(=O)[C@H](CCCN)NC(=O)[C@H](C(C)C)NC(=O)[C@H](Cc2ccc(O)cc2)NC(=O)[C@H](Cc2ccc(O)cc2)NC(=O)[C@H](CC(N)=O)NC(=O)[C@@H](Cc2ccccc2)NC(=O)[C@H](Cc2ccccc2)NC(=O)[C@@H]2CCCN2C(=O)[C@@H](Cc2ccccc2)NC1=O | 5 µg/mL (≈ 3.83 µM) | 120 µg/mL | 24 |
| CC(C)C[C@@H]1NC(=O)[C@H](CCCN)NC(=O)[C@H](C(C)C)NC(=O)[C@H](Cc2ccc(O)cc2)NC(=O)[C@H](CCCCN)NC(=O)[C@H](CC(N)=O)NC(=O)[C@@H](Cc2ccccc2)NC(=O)[C@H](Cc2ccccc2)NC(=O)[C@@H]2CCCN2C(=O)[C@@H](Cc2ccccc2)NC1=O (cyclo(F[dF]NKYV[Orn]L[dF]P)) | 1.1 µg/mL (≈ 0.866 µM) | 99 µg/mL | 90 |
| CC(C)C[C@@H]1NC(=O)[C@H](CCCN)NC(=O)[C@H](C(C)C)NC(=O)[C@H](Cc2ccc(O)cc2)NC(=O)[C@H](CCC(N)=O)NC(=O)[C@H](C)NC(=O)[C@@H](Cc2ccccc2)NC(=O)[C@H](Cc2ccccc2)NC(=O)[C@@H]2CCCN2C(=O)[C@@H](Cc2ccccc2)NC1=O | 15 µg/mL (≈ 12.2 µM) | 39 µg/mL | 2.6 |
| CC(C)C[C@@H]1NC(=O)[C@H](CCCN)NC(=O)[C@H](C(C)C)NC(=O)[C@H](Cc2ccc(O)cc2)NC(=O)[C@H](Cc2ccccc2)NC(=O)[C@H](CC(N)=O)NC(=O)[C@@H](Cc2ccccc2)NC(=O)[C@H](Cc2ccccc2)NC(=O)[C@@H]2CCCN2C(=O)[C@@H](Cc2ccccc2)NC1=O | 0.6 µg/mL (≈ 0.465 µM) | 18 µg/mL | 30 |
| CC(C)C[C@@H]1NC(=O)[C@H](CCCN)NC(=O)[C@H](C)NC(=O)[C@H](Cc2ccc(O)cc2)NC(=O)[C@H](CCC(N)=O)NC(=O)[C@H](CC(N)=O)NC(=O)[C@@H](Cc2ccccc2)NC(=O)[C@H](Cc2ccccc2)NC(=O)[C@@H]2CCCN2C(=O)[C@@H](Cc2ccccc2)NC1=O | 15 µg/mL (≈ 12.1 µM) | 16 µg/mL | 1.1 |
| CC(C)C[C@@H]1NC(=O)[C@H](C)NC(=O)[C@H](C(C)C)NC(=O)[C@H](Cc2ccc(O)cc2)NC(=O)[C@H](CCC(N)=O)NC(=O)[C@H](CC(N)=O)NC(=O)[C@@H](Cc2ccccc2)NC(=O)[C@H](Cc2ccccc2)NC(=O)[C@@H]2CCCN2C(=O)[C@@H](Cc2ccccc2)NC1=O | 13 µg/mL (≈ 10.6 µM) | 13 µg/mL | 1 |
| CC(C)C[C@@H]1NC(=O)[C@H](CCCN)NC(=O)[C@H](C(C)C)NC(=O)[C@H](Cc2ccc(O)cc2)NC(=O)[C@H](Cc2c[nH]c3ccccc23)NC(=O)[C@H](CC(N)=O)NC(=O)[C@@H](Cc2ccccc2)NC(=O)[C@H](Cc2ccccc2)NC(=O)[C@@H]2CCCN2C(=O)[C@@H](Cc2ccccc2)NC1=O | 3.8 µg/mL (≈ 2.86 µM) | 125 µg/mL | 33 |
| CC(C)C[C@@H]1NC(=O)[C@H](CCCN)NC(=O)[C@H](C(C)C)NC(=O)[C@H](Cc2ccc(O)cc2)NC(=O)[C@H](CO)NC(=O)[C@H](CC(N)=O)NC(=O)[C@@H](Cc2ccccc2)NC(=O)[C@H](Cc2ccccc2)NC(=O)[C@@H]2CCCN2C(=O)[C@@H](Cc2ccccc2)NC1=O | 0.3 µg/mL (≈ 0.244 µM) | 16 µg/mL | 53 |
| CC(C)C[C@@H]1NC(=O)[C@H](CCCN)NC(=O)[C@H](C(C)C)NC(=O)[C@H](Cc2ccc(O)cc2)NC(=O)[C@H](CCC(N)=O)NC(=O)[C@H](CC(N)=O)NC(=O)[C@@H](Cc2ccccc2)NC(=O)[C@H](Cc2ccccc2)NC(=O)[C@@H]2CCCN2C(=O)[C@@H](C)NC1=O | 15 µg/mL (≈ 12.6 µM) | 20 µg/mL | 1.3 |
| CC(C)C[C@@H]1NC(=O)[C@H](CCCN)NC(=O)[C@H](C(C)C)NC(=O)[C@H](Cc2ccc(O)cc2)NC(=O)[C@H](C(C)C)NC(=O)[C@H](CC(N)=O)NC(=O)[C@@H](Cc2ccccc2)NC(=O)[C@H](Cc2ccccc2)NC(=O)[C@@H]2CCCN2C(=O)[C@@H](Cc2ccccc2)NC1=O | 2.9 µg/mL (≈ 2.34 µM) | 35 µg/mL | 12 |
| CC[C@H](C)[C@@H]1NC(=O)[C@H](CC(N)=O)NC(=O)[C@@H](Cc2ccccc2)NC(=O)[C@H](Cc2ccccc2)NC(=O)[C@@H]2CCCN2C(=O)[C@@H](Cc2ccccc2)NC(=O)[C@H](CC(C)C)NC(=O)[C@H](CCCN)NC(=O)[C@H](C(C)C)NC(=O)[C@H](Cc2ccc(O)cc2)NC1=O | 1.8 µg/mL (≈ 1.43 µM) | 45 µg/mL | 25 |

The next lines start with results.

| MIC (Bacillus subtilis [1]) | SMILES | MHC [2] | Ratio (Bacillus subtilis [3]) |
| --- | --- | --- | --- |
| 7.5 µg/mL (≈ 5.9 µM) | CC(C)C[C@@H]1NC(=O)[C@H](CCCN)NC(=O)[C@H](C(C)C)NC(=O)[C@H](Cc2ccc(O)cc2)NC(=O)[C@H](CCC(=O)O)NC(=O)[C@H](CC(N)=O)NC(=O)[C@@H](Cc2ccccc2)NC(=O)[C@H](Cc2ccccc2)NC(=O)[C@@H]2CCCN2C(=O)[C@@H](Cc2ccccc2)NC1=O | 30 µg/mL | 4 |
| 0.3 µg/mL (≈ 0.239 µM) | CC(C)C[C@@H]1NC(=O)[C@H](CC(N)=O)NC(=O)[C@@H](Cc2ccccc2)NC(=O)[C@H](Cc2ccccc2)NC(=O)[C@@H]2CCCN2C(=O)[C@@H](Cc2ccccc2)NC(=O)[C@H](CC(C)C)NC(=O)[C@H](CCCN)NC(=O)[C@H](C(C)C)NC(=O)[C@H](Cc2ccc(O)cc2)NC1=O | 20 µg/mL | 67 |
| 25 µg/mL (≈ 20.4 µM) | CC(C)[C@@H]1NC(=O)[C@H](Cc2ccc(O)cc2)NC(=O)[C@H](CCC(N)=O)NC(=O)[C@H](CC(N)=O)NC(=O)[C@@H](Cc2ccccc2)NC(=O)[C@H](Cc2ccccc2)NC(=O)[C@@H]2CCCN2C(=O)[C@@H](Cc2ccccc2)NC(=O)[C@H](C)NC(=O)[C@H](CCCN)NC1=O | 50 µg/mL | 2 |
| 18 µg/mL (≈ 14.5 µM) | CC(C)C[C@@H]1NC(=O)[C@H](CCCN)NC(=O)[C@H](C(C)C)NC(=O)[C@H](Cc2ccc(O)cc2)NC(=O)[C@H](CCC(N)=O)NC(=O)[C@H](CC(N)=O)NC(=O)[C@@H](Cc2ccccc2)NC(=O)[C@H](Cc2ccccc2)NC(=O)[C@H](C)NC(=O)[C@@H](Cc2ccccc2)NC1=O | 53 µg/mL | 2.9 |
| 10 µg/mL (≈ 8.37 µM) | CC(C)C[C@@H]1NC(=O)[C@H](CCCN)NC(=O)[C@H](C(C)C)NC(=O)[C@H](Cc2ccc(O)cc2)NC(=O)[C@H](CCC(N)=O)NC(=O)[C@H](CC(N)=O)NC(=O)[C@@H](C)NC(=O)[C@H](Cc2ccccc2)NC(=O)[C@@H]2CCCN2C(=O)[C@@H](Cc2ccccc2)NC1=O | 47 µg/mL | 4.7 |
| 1.5 µg/mL (≈ 1.24 µM) | CC(C)C[C@@H]1NC(=O)[C@H](CCCN)NC(=O)[C@H](C(C)C)NC(=O)[C@H](Cc2ccc(O)cc2)NC(=O)[C@H](C)NC(=O)[C@H](CC(N)=O)NC(=O)[C@@H](Cc2ccccc2)NC(=O)[C@H](Cc2ccccc2)NC(=O)[C@@H]2CCCN2C(=O)[C@@H](Cc2ccccc2)NC1=O | 28 µg/mL | 19 |
| 19 µg/mL (≈ 15.9 µM) | CC(C)C[C@@H]1NC(=O)[C@H](CCCN)NC(=O)[C@H](C(C)C)NC(=O)[C@H](Cc2ccc(O)cc2)NC(=O)[C@H](CCC(N)=O)NC(=O)[C@H](CC(N)=O)NC(=O)[C@@H](Cc2ccccc2)NC(=O)[C@H](C)NC(=O)[C@@H]2CCCN2C(=O)[C@@H](Cc2ccccc2)NC1=O | 47 µg/mL | 2.5 |
| 0.2 µg/mL (≈ 0.159 µM) | CC(C)C[C@@H]1NC(=O)[C@H](CCCN)NC(=O)[C@H](C(C)C)NC(=O)[C@H](Cc2ccc(O)cc2)NC(=O)[C@H](CCCN)NC(=O)[C@H](CC(N)=O)NC(=O)[C@@H](Cc2ccccc2)NC(=O)[C@H](Cc2ccccc2)NC(=O)[C@@H]2CCCN2C(=O)[C@@H](Cc2ccccc2)NC1=O (cyclo(F[dF]N[Orn]YV[Orn]L[dF]P)) | 25 µg/mL | 125 |
| 0.3 µg/mL (≈ 0.231 µM) | CC(C)C[C@@H]1NC(=O)[C@H](CCCN)NC(=O)[C@H](C(C)C)NC(=O)[C@H](Cc2ccc(O)cc2)NC(=O)[C@H](CCCN=C(N)N)NC(=O)[C@H](CC(N)=O)NC(=O)[C@@H](Cc2ccccc2)NC(=O)[C@H](Cc2ccccc2)NC(=O)[C@@H]2CCCN2C(=O)[C@@H](Cc2ccccc2)NC1=O | 42 µg/mL | 140 |

Reference: ChEMBL document CHEMBL1145752, “Dissociation of antibacterial and hemolytic activities of an amphipathic peptide antibiotic” (2003)
